A value given as a limit tells only on which side of the number the result lay.

For the first experiment, the system named is THP-1. Description: Induction of cell cycle arrest in human THP1 cells assessed accumulation at subG1 phase at 25 uM incubated for 24 hrs by propidium iodide staining based microcapillary flow cytometry (reference value: 2 +/- 1%). Type of experiment: functional.
Conditions: not given
Take `CNc1nc(-c2cccc(NC(=O)c3cc4ccccc4[nH]3)c2)c[nH]1.Cl`: the Activity is listed as 18%.

For the compound `Cl.Nc1nc(-c2cccc(NC(=O)c3cc4cc(F)ccc4[nH]3)c2)c[nH]1`, the Activity amounted to 36%.

`Cl.Nc1nc(-c2cccc(NC(=O)c3cc4cc(Cl)ccc4[nH]3)c2)c[nH]1`: the Activity was determined as 26%.

In turn, `COc1ccc2[nH]c(C(=O)Nc3cccc(-c4c[nH]c(N)n4)c3)cc2c1.Cl` returned an Activity of 45%.

In another experiment the test system is THP-1. Description: Induction of apoptosis in human THP1 cells at 50 uM incubated for 24 hrs by Annexin V-FITC and propidium iodide staining based microcapillary flow cytometry. It counts as functional.
Conditions: not given
A general note: In flow cytometry, cells or beads pass a laser one at a time.
Consider `CNc1nc(-c2cccc(NC(=O)c3cc4ccccc4[nH]3)c2)c[nH]1.Cl`, for which the Activity was found to be 87%.

`Cl.Nc1nc(-c2cccc(NC(=O)c3cc4cc(F)ccc4[nH]3)c2)c[nH]1` showed an Activity of 87%.

Regarding `Cl.Nc1nc(-c2cccc(NC(=O)c3cc4cc(Cl)ccc4[nH]3)c2)c[nH]1`, the Activity is given as 87%.

In the case of `COc1ccc2[nH]c(C(=O)Nc3cccc(-c4c[nH]c(N)n4)c3)cc2c1.Cl`, the Activity stood at 87%.

`Cl.Nc1nc(-c2cccc(NC(=O)c3cc4sccc4[nH]3)c2)c[nH]1` gave an Activity of 12%.

A further experiment has as its system HepG2. In words: Induction of apoptosis in human HepG2 cells at 50 uM incubated for 24 hrs by Annexin V-FITC and propidium iodide staining based microcapillary flow cytometry. Type of experiment: functional.
Conditions: not given
`CNc1nc(-c2cccc(NC(=O)c3cc4ccccc4[nH]3)c2)c[nH]1.Cl`: the Activity was 91%.

`Cl.Nc1nc(-c2cccc(NC(=O)c3cc4cc(F)ccc4[nH]3)c2)c[nH]1` came in with an Activity of 98%.

For the compound `Cl.Nc1nc(-c2cccc(NC(=O)c3cc4cc(Cl)ccc4[nH]3)c2)c[nH]1`, the Activity came to 93%.

`COc1ccc2[nH]c(C(=O)Nc3cccc(-c4c[nH]c(N)n4)c3)cc2c1.Cl`: the Activity is 78%.

Compound `Cl.Nc1nc(-c2cccc(NC(=O)c3cc4sccc4[nH]3)c2)c[nH]1` displayed an Activity of 96%.

Another experiment relates to HepG2. In words: Induction of apoptosis in human HepG2 cells incubated for 24 hrs by Annexin V-FITC and propidium iodide staining based microcapillary flow cytometry. Type of experiment: functional, cell-based. The note with it: HepG2, 24 h.
As a reminder, the EC50 is the concentration giving half of the maximal effect. A higher EC50 goes with lower potency in that assay. In the case of `CNc1nc(-c2cccc(NC(=O)c3cc4ccccc4[nH]3)c2)c[nH]1.Cl`, the EC50 stood at 20 µM.

With `Cl.Nc1nc(-c2cccc(NC(=O)c3cc4cc(F)ccc4[nH]3)c2)c[nH]1`, a half-maximal response (EC50) required 13 µM.

Turning to `Cl.Nc1nc(-c2cccc(NC(=O)c3cc4cc(Cl)ccc4[nH]3)c2)c[nH]1`, the EC50 came to 16 µM.

`COc1ccc2[nH]c(C(=O)Nc3cccc(-c4c[nH]c(N)n4)c3)cc2c1.Cl` registered an EC50 of 18 µM.

In turn, `Cl.Nc1nc(-c2cccc(NC(=O)c3cc4sccc4[nH]3)c2)c[nH]1` displayed an EC50 of 42 µM.

A further experiment has as its system THP-1. In words: Induction of apoptosis in human THP1 cells incubated for 24 hrs by Annexin V-FITC and propidium iodide staining based microcapillary flow cytometry. Type of experiment: functional, cell-based. The note with it: THP-1, 24 h.
`CNc1nc(-c2cccc(NC(=O)c3cc4ccccc4[nH]3)c2)c[nH]1.Cl` showed an EC50 of 24 µM.

As for `Cl.Nc1nc(-c2cccc(NC(=O)c3cc4cc(F)ccc4[nH]3)c2)c[nH]1`, the EC50 was found to be 23 µM. This EC50 and that of the compound before are within 1.5-fold of each other.

`Cl.Nc1nc(-c2cccc(NC(=O)c3cc4cc(Cl)ccc4[nH]3)c2)c[nH]1` yielded an EC50 of 24 µM.

For `COc1ccc2[nH]c(C(=O)Nc3cccc(-c4c[nH]c(N)n4)c3)cc2c1.Cl`, the EC50 was 20 µM.

`Cl.Nc1nc(-c2cccc(NC(=O)c3cc4sccc4[nH]3)c2)c[nH]1` returned an EC50 of more than 50 µM.

The next experiment deals with THP-1. In words: Induction of cell cycle arrest in human THP1 cells assessed accumulation at subG1 phase at 25 uM incubated for 48 hrs by propidium iodide staining based microcapillary flow cytometry (reference value: 2 +/- 1%). It counts as functional.
Conditions: not given
`CNc1nc(-c2cccc(NC(=O)c3cc4ccccc4[nH]3)c2)c[nH]1.Cl` displayed an Activity of 49%.

In turn, `Cl.Nc1nc(-c2cccc(NC(=O)c3cc4cc(F)ccc4[nH]3)c2)c[nH]1` yielded an Activity of 41%.

The compound `Cl.Nc1nc(-c2cccc(NC(=O)c3cc4cc(Cl)ccc4[nH]3)c2)c[nH]1` returned an Activity of 40%.

As to `COc1ccc2[nH]c(C(=O)Nc3cccc(-c4c[nH]c(N)n4)c3)cc2c1.Cl`, the Activity was found to be 60%.

Source of the values: ChEMBL document CHEMBL3621195, “Analogues of the marine alkaloids oroidin, clathrodin, and hymenidin induce apoptosis in human HepG2 and THP-1 cancer cells” (Medchemcomm, 2015).
